Assays:
Type in all cases: in vivo
[1] = test system: wheat (Triticum aestivum L; TRZAS); assay: Postemergence herbicidal safening, greenhouse, visual injury: wheat; settings: for TRZAS Ob: applied alone
Experimental: (§1) Evaluation of Postemergence Herbicidal Safening in Cereal Crops
(§2) Seeds of the desired test plant species were planted in Sun Gro MetroMix® 306 planting mixture, which typically has a pH of 6.0 to 6.8 and an organic matter content of about 30 percent, in plastic pots with a surface area of 103.2 square centimeters (cm^2). When required to ensure good germination and healthy plants, a fungicide treatment and/or other chemical or physical treatment was applied. The plants were grown for 7-36 days (d) in a greenhouse with an approximate 14-hour (h) photoperiod which was maintained at about 18° C. during the day and 17° C. during the night. Nutrients and water were added on a regular basis and supplemental lighting was provided with overhead metal halide 1000-Watt lamps as necessary. The plants were employed for testing when they reached the second or third true leaf stage.
(§3) Weighed amounts of esters (methyl) or salts (TEA [triethylammonium], K [potassium]) of 4-amino-3-chloro-6-(4-chloro-2-fluoro-3-methoxyphenyl)pyridine-2-carboxylic acid (Compound 1) were dissolved in a volume of 97:3 volume/volume (v/v) acetone/dimethylsulfoxide (DMSO) to obtain stock solutions. […] The concentrated stock solutions were diluted with an aqueous mixture of 1.5% v/v of Agri-dex crop oil concentrate to provide the appropriate application rates. Compound requirements are based upon a 12 mL application volume at a rate of 187 liters per hectare (L/ha). Stocks solutions of the safeners were prepared following the same procedure. Spray solutions of the safeners and experimental compound mixtures were prepared by adding the stock solutions to the appropriate amount of dilution solution to form a 12 mL spray solution with active ingredients in two-way combinations. Formulated compounds were applied to the plant material with an overhead Mandel track sprayer equipped with 8002E nozzles calibrated to deliver 187 L/ha over an application area of 0.503 square meters (m^2) at a spray height of 18 inches (43 centimeters (cm)) above average plant canopy. Control plants were sprayed in the same manner with the solvent blank.
(§4) The treated plants and control plants were placed in a greenhouse as described above and watered by sub-irrigation to prevent wash-off of the test compounds. After 20-22 d, the condition of the test plants as compared with that of the control plants was determined visually and scored on a scale of 0 to 100 percent where 0 corresponds to no injury and 100 corresponds to complete kill.
(§5) Colby's equation was used to determine the herbicidal effects expected from the mixtures (Colby, S. R. Calculation of the synergistic and antagonistic response of herbicide combinations. Weeds 1967, 15, 20-22.).
(§6) The following equation was used to calculate the expected activity of mixtures containing two active ingredients, A and B: Expected=A+B−(A×B/100)
(§7) A=observed efficacy of active ingredient A at the same concentration as used in the mixture.
(§8) B=observed efficacy of active ingredient B at the same concentration as used in the mixture.

[2] = test system: barley (Hordeum vulgare L; HORVS); assay: Postemergence herbicidal safening, greenhouse, visual injury: barley; settings: for HORVS Ob: applied alone
Experimental: as §1, §2, §3, §4, §5, §6, §7, §8

[3] = test system: cleavers (Galium aparine L; GALAP); assay: Postemergence herbicidal activity, greenhouse, visual injury: cleavers; design: key: visual injury, 0–100%: 0 = no injury, 100 = complete kill; settings: applied alone
Experimental: as §1, §2, §3, §4, §5, §6, §7, §8

[4] = test system: kochia (Kochia scoparia L; KCHSC); assay: Postemergence herbicidal activity, greenhouse, visual injury: kochia; design: key: % visual injury: 0 = no injury, 100 = complete kill; settings: applied alone
Experimental: as §1, §2, §3, §4, §5, §6, §7, §8

[5] = test system: purple deadnettle (Lamium purpureum L; LAMPU); assay: Postemergence herbicidal activity, greenhouse, visual injury: purple deadnettle; design: key: visual injury, 0–100%: 0 = no injury, 100 = complete kill; settings: applied alone
Experimental: as §1, §2, §3, §4, §5, §6, §7, §8

[6] = test system: scented mayweed (Matricaria chamomila L; MATCH); assay: Postemergence herbicidal activity, greenhouse, visual injury: scented mayweed; design: key: % visual injury: 0 = no injury, 100 = complete kill; settings: for MATCH Ob: applied alone
Experimental: as §1, §2, §3, §4, §5, §6, §7, §8

[7] = test system: corn poppy (Papaver rhoeas L; PAPRH); assay: Postemergence herbicidal activity, greenhouse, visual injury: corn poppy; settings: applied alone
Experimental: as §1, §2, §3, §4, §5, §6, §7, §8

[8] = test system: wild buckwheat (Polygonum convolvulus L; POLCO); assay: Postemergence herbicidal activity, greenhouse, visual injury: wild buckwheat; settings: applied alone
Experimental: as §1, §2, §3, §4, §5, §6, §7, §8

[9] = test system: Russian thistle (Salsola iberica L; SASKR); assay: Postemergence herbicidal activity, greenhouse, visual injury: Russian thistle; design: key: visual injury, 0–100%: 0 = no injury, 100 = complete kill; settings: applied alone
Experimental: as §1, §2, §3, §4, §5, §6, §7, §8

[10] = test system: chickweed (Stellaria media L; STEME); assay: Postemergence herbicidal activity, greenhouse, visual injury: chickweed; design: key: visual injury, 0–100%: 0 = no injury, 100 = complete kill; settings: applied alone
Experimental: as §1, §2, §3, §4, §5, §6, §7, §8

[11] = test system: bird's-eye speedwell (Veronica persica L; VERPE); assay: Postemergence herbicidal activity, greenhouse, visual injury: bird's-eye speedwell; design: key: visual injury, 0–100%: 0 = no injury, 100 = complete kill; settings: applied alone
Experimental: as §1, §2, §3, §4, §5, §6, §7, §8

[12] = test system: wild pansy (Viola tricolor L; VIOTR); assay: Postemergence herbicidal activity, greenhouse, visual injury: wild pansy; design: key: visual injury, 0–100%: 0 = no injury, 100 = complete kill; settings: for VIOTR Ob: applied alone
Experimental: as §1, §2, §3, §4, §5, §6, §7, §8

`CC1(C)OC(c2ccco2)CN1C(=O)C(Cl)Cl` (stereo not shown) [Furilazole (MON 13900)] gave a TRZAS Ob ([1]; 17.5 g/ha) of 0%, a TRZAS Ob ([1]; 35 g/ha) of 0% and a TRZAS Ob ([1]; 70 g/ha) of 0%. It also gave a TRZAS Ob ([1]; 140 g/ha) of 0%, an HORVS Ob ([2]; 17.5 g/ha) of 0% and an HORVS Ob ([2]; 35 g/ha) of 0%. For the same molecule, the HORVS Ob ([2]; 70 g/ha) was 0%, the HORVS Ob ([2]; 140 g/ha) was 0% and the “GALAP Ob” value ([3]; 17.5 g/ha) was 0. For the same molecule, the “GALAP Ob” value ([3]; 35 g/ha) was 0, the “GALAP Ob” value ([3]; 70 g/ha) was 0 and the “GALAP Ob” value ([3]; 140 g/ha) was 0. The “KCHSC Ob” value ([4]; 17.5 g/ha) was 0, the “KCHSC Ob” value ([4]; 35 g/ha) was 0 and the “KCHSC Ob” value ([4]; 70 g/ha) was 0. For the same molecule, the “KCHSC Ob” value ([4]; 140 g/ha) was 0, the “LAMPU Ob” value ([5]; 17.5 g/ha) was 0 and the “LAMPU Ob” value ([5]; 35 g/ha) was 0. For the same molecule, the “LAMPU Ob” value ([5]; 70 g/ha) was 0, the “LAMPU Ob” value ([5]; 140 g/ha) was 0 and the “MATCH Ob” value ([6]; 17.5 g/ha) was 0. For the same molecule, the “MATCH Ob” value ([6]; 35 g/ha) was 0, the “MATCH Ob” value ([6]; 70 g/ha) was 0 and the “MATCH Ob” value ([6]; 140 g/ha) was 0. For the same molecule, the “PAPRH Ob” value ([7]; 17.5 g/ha) was 0, the “PAPRH Ob” value ([7]; 35 g/ha) was 0 and the “PAPRH Ob” value ([7]; 70 g/ha) was 0. The “PAPRH Ob” value ([7]; 140 g/ha) was 0, the “POLCO Ob” value ([8]; 17.5 g/ha) was 0 and the “POLCO Ob” value ([8]; 35 g/ha) was 0. For the same molecule, the “POLCO Ob” value ([8]; 70 g/ha) was 0, the “POLCO Ob” value ([8]; 140 g/ha) was 0 and the “SASKR Ob” value ([9]; 17.5 g/ha) was 0. The “SASKR Ob” value ([9]; 35 g/ha) was 0, the “SASKR Ob” value ([9]; 70 g/ha) was 0 and the “SASKR Ob” value ([9]; 140 g/ha) was 0. The “STEME Ob” value ([10]; 17.5 g/ha) was 0, the “STEME Ob” value ([10]; 35 g/ha) was 0 and the “STEME Ob” value ([10]; 70 g/ha) was 0. The “STEME Ob” value ([10]; 140 g/ha) was 0, the “VERPE Ob” value ([11]; 17.5 g/ha) was 0 and the “VERPE Ob” value ([11]; 35 g/ha) was 0. The “VERPE Ob” value ([11]; 70 g/ha) was 0, the “VERPE Ob” value ([11]; 140 g/ha) was 0 and the “VIOTR Ob” value ([12]; 17.5 g/ha) was 0. The “VIOTR Ob” value ([12]; 35 g/ha) was 0, the “VIOTR Ob” value ([12]; 70 g/ha) was 0 and the “VIOTR Ob” value ([12]; 140 g/ha) was 0.
`O=C(O)CNCP(=O)(O)O` [Glyphosate] was tested, and the “TRZAS Ob (Observed values)” value ([1]; Glyphosate 52.5 g/ha alone) was 48, the “HORVS Ob (Observed values)” value ([2]; Glyphosate 52.5 g/ha alone) was 13 and the “MATCH Ob (Observed values)” value ([6]; Glyphosate 52.5 g/ha alone) was 28. The “VIOTR Ob (Observed values)” value ([12]; Glyphosate 52.5 g/ha alone) was 52.
In the case of `N#C/C(=N\OCC1OCCO1)c1ccccc1` [Oxabetrinil], the TRZAS Ob ([1]; 17.5 g/ha) is reported as 0%, the TRZAS Ob ([1]; 35 g/ha) is reported as 0% and the TRZAS Ob ([1]; 70 g/ha) is reported as 0%. For the same molecule, the TRZAS Ob ([1]; 140 g/ha) was 0%, the HORVS Ob ([2]; 17.5 g/ha) was 0% and the HORVS Ob ([2]; 35 g/ha) was 0%. The HORVS Ob ([2]; 70 g/ha) was 0%, the HORVS Ob ([2]; 140 g/ha) was 0% and the “GALAP Ob” value ([3]; 17.5 g/ha) was 0. For the same molecule, the “GALAP Ob” value ([3]; 35 g/ha) was 0, the “GALAP Ob” value ([3]; 70 g/ha) was 0 and the “GALAP Ob” value ([3]; 140 g/ha) was 0. The “KCHSC Ob” value ([4]; 17.5 g/ha) was 0, the “KCHSC Ob” value ([4]; 35 g/ha) was 0 and the “KCHSC Ob” value ([4]; 70 g/ha) was 0. The “KCHSC Ob” value ([4]; 140 g/ha) was 0, the “LAMPU Ob” value ([5]; 17.5 g/ha) was 0 and the “LAMPU Ob” value ([5]; 35 g/ha) was 0. The “LAMPU Ob” value ([5]; 70 g/ha) was 0, the “LAMPU Ob” value ([5]; 140 g/ha) was 0 and the “MATCH Ob” value ([6]; 17.5 g/ha) was 0. The “MATCH Ob” value ([6]; 35 g/ha) was 0, the “MATCH Ob” value ([6]; 70 g/ha) was 0 and the “MATCH Ob” value ([6]; 140 g/ha) was 0. The “PAPRH Ob” value ([7]; 17.5 g/ha) was 0, the “PAPRH Ob” value ([7]; 35 g/ha) was 0 and the “PAPRH Ob” value ([7]; 70 g/ha) was 0. For the same molecule, the “PAPRH Ob” value ([7]; 140 g/ha) was 0, the “POLCO Ob” value ([8]; 17.5 g/ha) was 0 and the “POLCO Ob” value ([8]; 35 g/ha) was 0. For the same molecule, the “POLCO Ob” value ([8]; 70 g/ha) was 0, the “POLCO Ob” value ([8]; 140 g/ha) was 0 and the “SASKR Ob” value ([9]; 17.5 g/ha) was 0. For the same molecule, the “SASKR Ob” value ([9]; 35 g/ha) was 0, the “SASKR Ob” value ([9]; 70 g/ha) was 0 and the “SASKR Ob” value ([9]; 140 g/ha) was 0. The “STEME Ob” value ([10]; 17.5 g/ha) was 0, the “STEME Ob” value ([10]; 35 g/ha) was 0 and the “STEME Ob” value ([10]; 70 g/ha) was 0. For the same molecule, the “STEME Ob” value ([10]; 140 g/ha) was 0, the “VERPE Ob” value ([11]; 17.5 g/ha) was 0 and the “VERPE Ob” value ([11]; 35 g/ha) was 0. The “VERPE Ob” value ([11]; 70 g/ha) was 0, the “VERPE Ob” value ([11]; 140 g/ha) was 0 and the “VIOTR Ob” value ([12]; 17.5 g/ha) was 0. For the same molecule, the “VIOTR Ob” value ([12]; 35 g/ha) was 0, the “VIOTR Ob” value ([12]; 70 g/ha) was 0 and the “VIOTR Ob” value ([12]; 140 g/ha) was 0.
